# Reference: US4123534A, “Adenine derivatives and hypolipidemic composition thereof” (Wulfing; Johann W., priority 1976, dated 1978)
# Like-named read-outs stand apart in the source and are kept apart here.
# Tests used:
# [1] = fall in serum triglyceride levels in male rats, 1 mg/kg per os; format: in vivo; details: 3-methylpyrazole-5-carboxylic acid addition salts
# Method: When administered to male rats the 3-methylpyrazole-5-carboxylic acid addition salts of the compound of the formula (IV) wherein R2 is respectively a methyl, ethyl, isopropyl and n-butyl at a dose of 1 mg/kg per os produced a fall in serum triglyceride levels of about 23%, 34%, 34% and 56% respectively.
# [2] = acute toxicity (LD50) in mice; format: in vivo; details: for LD50: mouse, in vivo, mice
# [3] = oral test in normal rats starved for 17 hours: serum lipid lowering; format: in vivo; details: rats starved 17 hours
# Method: Similarly, a reduction in serum free fatty acid concentration of about 40-50% was produced over the dose range 0.15 mg/kg to 5 mg/kg.
# [4] = different animal species and man; cited from earlier work
smiles,measurement,setting,value
CC(C)N(CCO)CC(O)Cn1cnc2c(N)ncnc21 (centres unmarked),fall in serum triglyceride levels,[1],~34%
CCCCN(CCO)CC(O)Cn1cnc2c(N)ncnc21 (centres unmarked),fall in serum triglyceride levels,[1],~56%
CCN(CCO)CC(O)Cn1cnc2c(N)ncnc21 (centres unmarked),fall in serum triglyceride levels,[1],~34%
"CN(CCO)CC(O)Cn1cnc2c(N)ncnc21 (stereo not drawn) [Example 1 (9-isomer), 6-Amino-9-[2-hydroxy-3-(N-methyl-N-2-hydroxyethyl)aminopropyl]purine]",acute toxicity,[2]; in words,low acute toxicity
same,LD50,"[2]; iv, intra-venous, read-out: LD50 by intra-venous administration",~350 mg/kg
same,LD50,"[2]; oral, read-out: LD50 by oral administration",~1000 mg/kg
"CN(CCO)CC(O)Cn1cnc2c(N)ncnc21 (centres unmarked) [Example 2, 6-Amino-9-[2-hydroxy-3-(N-methyl-N-2-hydroxyethyl)aminopropyl]purine3-methylpyrazole-5-carboxylate]",reduction in serum triglyceride levels,"[3]; 1 hour post administration, dose range 0.25 mg/kg to 25 mg/kg",30-40%
same,reduction in serum cholesterol levels,[3]; dose of 100 mg/kg,about 30%
same,reduction in serum free fatty acid concentration,[3]; dose range 0.15 mg/kg to 5 mg/kg,40-50%
same,fall in serum triglyceride levels,[1],about 23%
Nc1ncnc2c1ncn2C[C@@H](O)[C@@H](O)C(=O)O [lentinacin],"lowering of lipid components of plasma lipoproteins (cholesterol, triglycerides and phospholipids)",[4],lowers all lipid components of the plasma - lipoproteins
